Counter-ions that a name gives are not always drawn.
How the values were obtained:
PI3Kα = PI3Kα (Homo sapiens (Human), UniProt P42336); test: Inhibition of PI3Kα (ADP-Glo kinase activity assay, ATP to ADP conversion); type: biochemical; conditions: 25 μM PIP2:PS, 60 μM ATP, 30 min reaction, luminescence
How it was run: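 Recombinant active PI3Kα (1.1 nM) in HEPES pH 7.5 buffer with 6 mM MgCl2 and 8 mM DTT was preincubated with compound for 0 or 3 h. The reaction ran for 30 min with 25 µM PIP2:PS and 60 µM ATP, and ADP formation was read by ADP-Glo luminescence. IC50 came from a 12-point, 1:3 series fitted with a 4-parameter model, bottom fixed to reference inhibitor controls and top floating.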

[1] = tested on: (Ser-473) pAKT in B103 (Rat Neuroblastoma) cells; test: pAKT protocol: loss of (Ser-473) pAKT by AlphaScreen in insulin-stimulated B103 cells; type: cell-based; conditions: (Ser-473) pAKT/total AKT IC50, 2-hour pretreatment, 2.5 μg/mL insulin 20 minutes
Method: Inhibition of the PI3K-AKT-mTOR pathway was measured by quantifying the loss of (Ser-473) pAKT using AlphaScreen (Perkin Elmer). B103 (Rat Neuroblastoma) cells were seeded in serum containing medium (High Glucose DMEM (-Phenol Red)+10% FBS+2× Glutamax+1 mM Sodium Pyruvate+10 mM HEPES+1× Non-Essential Amino Acids+1× Pen/Strep) on a 96-well tissue culture treated plate and grown for 20 hours. Cells were then serum starved in serum free medium (High Glucose DMEM (-Phenol Red)+1× Glutamax+1 mM Sodium Pyruvate+1× Pen/Strep) for 6 hours prior to a 2-hour pretreatment with inhibitors of the pathway, including reference inhibitor LY294002. These inhibitors were prepared at a 200× final concentration as a 6-point, 1:3 serial dilution in DMSO series, with DMSO as the 7th point. The inhibitors were then diluted in experimental medium (High Glucose DMEM (-Phenol Red)+1× Glutamax+1 mM Sodium Pyruvate+1× Pen/Strep+25 mM HEPES+0.1% BSA) and combined with the cells at 1× final concentration in 0.5% DMSO. […] Cells were promptly lysed using Perkin Elmer proprietary lysis buffer and the (Ser-473) pAKT and total AKT contained in the lysate was measured by AlphaScreen. In AlphaScreen, donor beads were coated with streptavidin to capture one of the antibodies, which is biotinylated. Acceptor beads were coated with Protein A to immobilize the other antibody. In the presence of target protein, the two antibodies bring the donor and acceptor beads close together, generating signal. The amount of light emission is directly proportional to the amount of target protein present in the sample. For each inhibitor tested: the ratio of measured (Ser-473) pAKT/totalAKT was plotted in GraphPad Prism as a 7-point, non-linear regression, 4-parameter curve with bottom constrained to reference control bottom and unconstrained top anchored to DMSO.

mTor kinase = mTor kinase (Homo sapiens (Human), UniProt P42345); test: mTor assay (33P-ATP filter-binding kinase assay); type: biochemical; conditions: 2 hours at room temperature
Method: The substrate was prepared in base reaction buffer (20 mM Hepes (pH 7.5), 10 mM MgCl2, 1 mM EGTA, 0.02% Brij35, 0.02 mg/ml BSA, 0.1 mM Na3VO4, 2 mM DTT, 1% DMSO), and required cofactors were added to the substrate solution. The mTor kinase was delivered into the substrate solution, and the solution was gently mixed. Testing compounds were dissolved in 100% DMSO to specific concentration. The serial dilution was conducted by Integra Viaflo Assist in DMSO. The compounds were delivered into the kinase reaction mixture by Acoustic technology (Echo550; nanoliter range), and the reaction mixture was incubated for 20 min at room temperature. Then, 33P-ATP (Specific activity 10 μCi/μl) was delivered into the reaction mixture to initiate the reaction. The reaction mixture was incubated for 2 hours at room temperature. Radioactivity was detected by a filter-binding method. Kinase activity data were expressed as the percent remaining kinase activity in test samples compared to vehicle (dimethyl sulfoxide) reactions. IC50 values and curve fits were obtained using Prism (GraphPad Software).

Sequence of PI3Kα (P42336 whole entry): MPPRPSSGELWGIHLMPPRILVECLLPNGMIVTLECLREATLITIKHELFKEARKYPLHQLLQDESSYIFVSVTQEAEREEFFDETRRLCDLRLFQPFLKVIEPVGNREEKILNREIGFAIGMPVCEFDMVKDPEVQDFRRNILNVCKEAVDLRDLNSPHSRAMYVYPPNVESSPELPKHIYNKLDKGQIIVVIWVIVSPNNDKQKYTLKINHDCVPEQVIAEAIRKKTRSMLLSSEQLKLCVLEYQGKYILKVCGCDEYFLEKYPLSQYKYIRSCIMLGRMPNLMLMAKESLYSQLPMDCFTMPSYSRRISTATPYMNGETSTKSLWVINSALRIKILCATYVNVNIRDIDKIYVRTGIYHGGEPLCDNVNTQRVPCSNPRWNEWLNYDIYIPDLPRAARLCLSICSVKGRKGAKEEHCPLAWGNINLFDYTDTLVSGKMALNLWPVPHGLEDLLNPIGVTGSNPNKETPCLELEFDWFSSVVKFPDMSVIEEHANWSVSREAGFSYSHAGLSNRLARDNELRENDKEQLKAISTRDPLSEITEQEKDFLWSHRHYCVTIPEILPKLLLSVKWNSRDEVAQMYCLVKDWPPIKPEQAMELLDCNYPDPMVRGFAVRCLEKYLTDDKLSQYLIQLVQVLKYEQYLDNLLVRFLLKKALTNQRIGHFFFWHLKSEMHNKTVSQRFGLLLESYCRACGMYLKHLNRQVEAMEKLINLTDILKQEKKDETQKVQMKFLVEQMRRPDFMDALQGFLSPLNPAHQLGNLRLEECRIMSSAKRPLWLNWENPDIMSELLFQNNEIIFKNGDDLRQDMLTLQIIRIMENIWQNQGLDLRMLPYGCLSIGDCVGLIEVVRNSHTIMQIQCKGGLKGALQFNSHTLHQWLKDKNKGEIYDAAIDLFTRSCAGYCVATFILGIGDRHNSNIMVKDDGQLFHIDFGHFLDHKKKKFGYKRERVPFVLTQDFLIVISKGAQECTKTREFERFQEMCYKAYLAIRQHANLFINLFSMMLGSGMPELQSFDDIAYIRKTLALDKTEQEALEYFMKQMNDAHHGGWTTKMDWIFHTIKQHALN
Sequence of PI3Kα (P27986 whole entry partner): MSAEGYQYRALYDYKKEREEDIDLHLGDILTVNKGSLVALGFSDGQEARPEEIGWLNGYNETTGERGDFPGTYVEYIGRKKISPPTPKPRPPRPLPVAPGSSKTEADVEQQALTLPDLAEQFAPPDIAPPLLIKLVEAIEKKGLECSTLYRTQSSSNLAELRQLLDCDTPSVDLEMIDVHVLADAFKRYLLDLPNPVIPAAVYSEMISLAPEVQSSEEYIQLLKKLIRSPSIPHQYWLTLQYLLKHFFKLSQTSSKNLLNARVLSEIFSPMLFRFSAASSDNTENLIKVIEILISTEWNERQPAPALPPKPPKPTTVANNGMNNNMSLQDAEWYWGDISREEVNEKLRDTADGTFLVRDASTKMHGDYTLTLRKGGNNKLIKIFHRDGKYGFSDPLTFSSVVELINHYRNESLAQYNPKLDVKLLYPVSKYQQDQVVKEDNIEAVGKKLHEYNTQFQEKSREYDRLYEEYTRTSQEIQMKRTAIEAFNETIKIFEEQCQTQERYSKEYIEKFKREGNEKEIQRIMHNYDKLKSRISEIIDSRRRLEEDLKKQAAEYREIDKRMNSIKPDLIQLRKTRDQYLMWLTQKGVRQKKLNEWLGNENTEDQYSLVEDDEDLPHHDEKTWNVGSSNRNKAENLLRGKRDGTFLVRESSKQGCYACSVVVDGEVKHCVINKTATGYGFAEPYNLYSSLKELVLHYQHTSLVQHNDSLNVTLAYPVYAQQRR

Row | Structure (SMILES) | PI3Ka IC50 (PI3Kα) [µM] | IC50 [1] [µM] | IC50 (mTor kinase) [µM] | IC50 (PI3Kα; read-out: PI3Ka IC50) [µM]
1 | Nc1ncc(-c2cc(N3CCOCC3)cc(S(=O)(=O)Cc3c[nH]c4ccccc34)c2)cn1 [48 (as a TFA salt), 5-(3-(((1H-indol-3-yl)methyl)sulfonyl)-5-morpholinophenyl)pyrimidin-2-amine] | 0.47 | > 50 | 6.39 | 
2 | CS(=O)(=O)Nc1ccc(CS(=O)(=O)c2cc(-c3cnc(N)nc3)cc(N3CCOCC3)c2)cc1 [57 (as a TFA salt), N-(4-(((3-(2-aminopyrimidin-5-yl)-5-morpholinophenyl)sulfonyl)methyl)phenyl) methanesulfonamide] |  | 19.8 | 3.44 | 0.48
3 | Nc1ncc(-c2cc(N3CCOCC3)cc(S(=O)(=O)Cc3c[nH]cn3)c2)cn1 [59 (as a TFA salt), 5-(3-(((1H-imidazol-4-yl)methyl)sulfonyl)-5-morpholinophenyl)pyrimidin-2-amine] | 0.46 | 36.1 | 4.6 | 
4 | Nc1ncc(-c2cc(N3CCOCC3)cc(S(=O)(=O)c3ccccc3)c2)cn1 [Compound 1, 5-(3-morpholino-5-(phenylsulfonyl)phenyl)pyrimidin-2-amine] | 0.61 | 7.52 | 2 | 
5 | CC(=O)N1CCC(S(=O)(=O)c2cc(-c3cnc(N)nc3)cc(N3CCOCC3)c2)CC1 [Compound 83, 1-(4-((3-(2-aminopyrimidin-5-yl)-5-morpholinophenyl)sulfonyl)piperidin-1-yl)ethan-1-one] | 0.34 | 8.47 |  | 
6 | CC(C)(C)NC(=O)N1CC(S(=O)(=O)c2cc(-c3cnc(N)nc3)cc(N3CCOCC3)c2)C1 [Compound 92, 3-((3-(2-aminopyrimidin-5-yl)-5-morpholinophenyl)sulfonyl)-N-(tert-butyl)azetidine-1-carboxamide] | 0.15 | 2.91 |  | 
7 | COCNC(=O)N1CC(S(=O)(=O)c2cc(-c3cnc(N)nc3)cc(N3CCOCC3)c2)C1 [Compound 94, 3-((3-(2-aminopyrimidin-5-yl)-5-morpholinophenyl)sulfonyl)-N-(methoxymethyl)azetidine-1-carboxamide] | 0.11 | 19.8 |  | 
8 | CN(C)C(=O)N1CC(S(=O)(=O)c2cc(-c3cnc(N)nc3)cc(N3CCOCC3)c2)C1 [Compound 95, 3-((3-(2-aminopyrimidin-5-yl)-5-morpholinophenyl)sulfonyl)-N,N-dimethylazetidine-1-carboxamide] | 0.12 | 5.19 |  | 
9 | Nc1ccc(-c2cc(N3CCOCC3)cc(S(=O)(=O)Cc3ccc(F)cc3F)c2)nn1 [Compound 96, 6-(3-((2,4-difluorobenzyl)sulfonyl)-5-morpholinophenyl)pyridazin-3-amine] | 1.4 | 1.06 |  | 
10 | Nc1ncc(-c2cc(N3CCOCC3)cc(S(=O)(=O)Cc3ccncc3)c2)cn1 [Compound 97, 5-(3-morpholino-5-((pyridin-4-ylmethyl)sulfonyl)phenyl)pyrimidin-2-amine] | 0.51 | 12.4 |  | 
11 | Nc1ncc(-c2cc(N3CCOCC3)cc(S(=O)(=O)[C@@H]3CCOC3)c2)cc1C(F)(F)F [Compound 100, (R)-5-(3-morpholino-5-((tetrahydrofuran-3-yl)sulfonyl)phenyl)-3-(trifluoromethyl)pyridin-2-amine] | 1.6 | 48.2 |  | 
12 | Nc1ccc(-c2cc(N3CCOCC3)cc(S(=O)(=O)[C@@H]3CCOC3)c2)cn1 [Compound 101, (R)-5-(3-morpholino-5-((tetrahydrofuran-3-yl)sulfonyl)phenyl)pyridin-2-amine] | 0.88 | 8.53 |  | 
13 | O=C(C1CC1)N1CC(S(=O)(=O)c2cc(-c3cnc(NC4CC4)nc3)cc(N3CCOCC3)c2)C1 [Compound 102, cyclopropyl(3-((3-(2-(cyclopropylamino)pyrimidin-5-yl)-5-morpholinophenyl)sulfonyl)azetidin-1-yl)methanone] | 0.54 | 6.79 |  | 
14 | O=S(=O)(c1cc(-c2cnc(NC3CC3)nc2)cc(N2CCOCC2)c1)C1CCOC1 (centres unmarked) [Compound 103, N-cyclopropyl-5-(3-morpholino-5-((tetrahydrofuran-3-yl)sulfonyl)phenyl)pyrimidin-2-amine] | 0.68 | 5.81 |  | 
15 | CNc1ccc(-c2cc(N3CCOCC3)cc(S(=O)(=O)[C@@H]3CCOC3)c2)cn1 [Compound 108, (R)-N-methyl-5-(3-morpholino-5-((tetrahydrofuran-3-yl)sulfonyl)phenyl)pyridin-2-amine] | 0.69 | 4.72 |  | 
16 | Nc1ncc(-c2cc(N3CCOCC3)cc(S(=O)(=O)c3coc4ccccc34)c2)cn1 [Compound 109, 5-(3-(benzofuran-3-ylsulfonyl)-5-morpholinophenyl)pyrimidin-2-amine] | 1.2 | 15 |  | 
17 | Nc1ncc(-c2cc(N3CCOCC3)cc(S(=O)(=O)c3ccc4ccoc4c3)c2)cn1 [Compound 112, 5-(3-(benzofuran-6-ylsulfonyl)-5-morpholinophenyl)pyrimidin-2-amine] | 2.3 | 22.3 |  | 
18 | Nc1ncc(-c2cc(N3CCOCC3)cc(S(=O)(=O)/C=C/c3ccccc3O)c2)cn1 [Compound 113, (E)-2-(2-((3-(2-aminopyrimidin-5-yl)-5-morpholinophenyl)sulfonyl)vinyl)phenol] | 1.1 | 14.3 |  | 
19 | Nc1ncc(-c2cc(N3CCOCC3)cc(S(=O)(=O)c3c[nH]c4ccccc34)c2)cn1 [Compound 114, 5-(3-((1H-indol-3-yl)sulfonyl)-5-morpholinophenyl)pyrimidin-2-amine] | 2.4 | 15.3 |  | 
20 | Nc1ncc(-c2cc(N3CCOCC3)cc(S(=O)(=O)c3ccc4c(c3)OCC4)c2)cn1 [Compound 116, 5-(3-((2,3-dihydrobenzofuran-6-yl)sulfonyl)-5-morpholinophenyl)pyrimidin-2-amine] | 2.3 | 22.9 |  | 
21 | Nc1ncc(-c2cc(N3CCOCC3)cc(S(=O)(=O)c3ccccc3)n2)cn1 [Compound 117, 5-(4-morpholino-6-(phenylsulfonyl)pyridin-2-yl)pyrimidin-2-amine] | 3.3 | 17.3 |  | 
22 | Nc1ncc(-c2cc(N3CCOCC3)nc(S(=O)(=O)c3ccccc3)c2)cn1 [Compound 118, 5-(2-morpholino-6-(phenylsulfonyl)pyridin-4-yl)pyrimidin-2-amine] | 0.88 | 13.8 |  | 
23 | Nc1ncc(-c2cc(Cc3ccccc3)cc(N3CCOCC3)n2)cn1 [Compound 124, 5-(4-benzyl-6-morpholinopyridin-2-yl)pyrimidin-2-amine] | 0.12 | 0.89 |  | 
24 | C=C(c1ccccc1)c1cc(-c2cnc(N)nc2)nc(N2CCOCC2)c1 [Compound 126, 5-(6-morpholino-4-(1-phenylvinyl)pyridin-2-yl)pyrimidin-2-amine] | 0.27 | 0.49 |  | 
25 | Nc1ncc(-c2cc(S(=O)(=O)c3ccccc3Cl)cc(N3CCOCC3)n2)cn1 [Compound 139, 5-(4-((2-chlorophenyl)sulfonyl)-6-morpholinopyridin-2-yl)pyrimidin-2-amine] | 0.017 | 0.016 |  | 
26 | Nc1ncc(-c2cc(N3CCCc4ccccc43)cc(N3CCOCC3)n2)cn1 [Compound 140, 5-(4-(3,4-Dihydroquinolin-1(2H)-yl)-6-morpholinopyridin-2-yl)pyrimidin-2-amine] | 0.12 | 0.31 |  | 

Source: patent US11492348B2, “Tri-substituted aryl and heteroaryl derivatives as modulators of PI3-kinase and autophagy pathways” (Neuropore Therapies, Inc., priority 2018, dated 2022)
